According to the NIST ThermoML archive (doi:10.1021/je400056z):

Test: xn = mol fraction of the nth substance listed
Conditions: Liquid, Vibrating tube method

CCCCCCC [heptane] + O=C=O
Conditions | mass density [kg/m3]
352.3 K, 20004 kPa, x2 = 0.7514 | 694.21
352.3 K, 21007 kPa, x2 = 0.7514 | 699.11
352.3 K, 22009 kPa, x2 = 0.7514 | 703.64
352.3 K, 22989 kPa, x2 = 0.7514 | 707.97
352.3 K, 24025 kPa, x2 = 0.7514 | 712.39
352.3 K, 24893 kPa, x2 = 0.7514 | 715.94
352.44 K, 4005 kPa, x2 = 0.0218 | 638.36
352.44 K, 5013 kPa, x2 = 0.0218 | 639.84
352.44 K, 6005 kPa, x2 = 0.0218 | 641.24
352.44 K, 7000 kPa, x2 = 0.0218 | 642.57
352.44 K, 8008 kPa, x2 = 0.0218 | 643.95
352.44 K, 9006 kPa, x2 = 0.0218 | 645.27
352.44 K, 10002 kPa, x2 = 0.0218 | 646.56
352.44 K, 11002 kPa, x2 = 0.0218 | 647.79
352.44 K, 12000 kPa, x2 = 0.0218 | 649.14
352.44 K, 13002 kPa, x2 = 0.0218 | 650.25
352.44 K, 13998 kPa, x2 = 0.0218 | 651.46
352.44 K, 15011 kPa, x2 = 0.0218 | 652.7
352.44 K, 16006 kPa, x2 = 0.0218 | 653.84
352.44 K, 17009 kPa, x2 = 0.0218 | 654.98
352.44 K, 17993 kPa, x2 = 0.0218 | 656.08
352.44 K, 18998 kPa, x2 = 0.0218 | 657.17
352.44 K, 20004 kPa, x2 = 0.0218 | 658.27
352.44 K, 21002 kPa, x2 = 0.0218 | 659.34
352.44 K, 22002 kPa, x2 = 0.0218 | 660.39
352.44 K, 23003 kPa, x2 = 0.0218 | 661.43
352.44 K, 23998 kPa, x2 = 0.0218 | 662.47
352.44 K, 25014 kPa, x2 = 0.0218 | 663.51
352.51 K, 9000 kPa, x2 = 0.5085 | 656.72
352.51 K, 10004 kPa, x2 = 0.5085 | 660.28
352.51 K, 11004 kPa, x2 = 0.5085 | 663.66
352.51 K, 12007 kPa, x2 = 0.5085 | 666.9
352.51 K, 13000 kPa, x2 = 0.5085 | 670.03
352.51 K, 14003 kPa, x2 = 0.5085 | 673
352.51 K, 15002 kPa, x2 = 0.5085 | 675.9
352.51 K, 15998 kPa, x2 = 0.5085 | 678.62
352.51 K, 17010 kPa, x2 = 0.5085 | 681.33
352.51 K, 18003 kPa, x2 = 0.5085 | 683.88
352.51 K, 19006 kPa, x2 = 0.5085 | 686.38
352.51 K, 20013 kPa, x2 = 0.5085 | 688.8
352.51 K, 21004 kPa, x2 = 0.5085 | 691.17
352.51 K, 22004 kPa, x2 = 0.5085 | 693.46
352.51 K, 23002 kPa, x2 = 0.5085 | 695.71
352.51 K, 24007 kPa, x2 = 0.5085 | 697.91
352.51 K, 25011 kPa, x2 = 0.5085 | 700.05
352.54 K, 15235 kPa, x2 = 0.9496 | 511.88
352.54 K, 15989 kPa, x2 = 0.9496 | 538.42
352.54 K, 17004 kPa, x2 = 0.9496 | 568.84
352.54 K, 18001 kPa, x2 = 0.9496 | 594.2
352.54 K, 18993 kPa, x2 = 0.9496 | 616.18
352.54 K, 20006 kPa, x2 = 0.9496 | 635.42
352.54 K, 20999 kPa, x2 = 0.9496 | 652.26
352.54 K, 22018 kPa, x2 = 0.9496 | 667.75
352.54 K, 22994 kPa, x2 = 0.9496 | 681.03
352.54 K, 24034 kPa, x2 = 0.9496 | 693.84
362.09 K, 12975 kPa, x2 = 0.7514 | 586.38
362.09 K, 14000 kPa, x2 = 0.7514 | 602.3
362.09 K, 14863 kPa, x2 = 0.7514 | 613.15
362.09 K, 16010 kPa, x2 = 0.7514 | 625.83
362.09 K, 17009 kPa, x2 = 0.7514 | 635.46
362.09 K, 18017 kPa, x2 = 0.7514 | 644.3
362.09 K, 19007 kPa, x2 = 0.7514 | 652.35
362.09 K, 20005 kPa, x2 = 0.7514 | 659.83
362.09 K, 21006 kPa, x2 = 0.7514 | 666.86
362.09 K, 22003 kPa, x2 = 0.7514 | 672.93
362.09 K, 22995 kPa, x2 = 0.7514 | 679.37
362.09 K, 24000 kPa, x2 = 0.7514 | 685.55
